{"source": "patent US7638639B2", "about": "“Substituted pyrrolidine and related compounds” (Theravance, Inc., priority 2003, dated 2009)", "target": "T1, hM2 receptor (Homo sapiens, UniProt P08172)", "T1 construct": "expressed in transfected cells", "T1 sequence (P08172 1-466)": "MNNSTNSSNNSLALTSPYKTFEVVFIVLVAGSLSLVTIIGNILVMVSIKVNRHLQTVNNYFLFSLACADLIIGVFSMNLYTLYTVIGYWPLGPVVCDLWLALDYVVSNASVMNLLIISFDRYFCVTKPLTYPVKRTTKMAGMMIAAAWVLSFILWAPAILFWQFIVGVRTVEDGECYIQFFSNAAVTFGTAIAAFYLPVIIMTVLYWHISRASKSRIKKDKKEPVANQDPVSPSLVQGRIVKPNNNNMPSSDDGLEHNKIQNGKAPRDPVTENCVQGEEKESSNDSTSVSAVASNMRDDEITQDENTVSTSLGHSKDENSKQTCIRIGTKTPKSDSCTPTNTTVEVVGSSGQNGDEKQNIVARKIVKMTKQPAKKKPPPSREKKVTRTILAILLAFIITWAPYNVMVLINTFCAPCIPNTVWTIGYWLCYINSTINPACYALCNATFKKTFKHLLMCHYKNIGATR", "assay": "Blockade of agonist-mediated inhibition of cAMP accumulation", "assay_type": "cell-based", "conditions": "CHO-K1 cells expressing the hM2 receptor; read-out: Ki for blockade of oxotremorine-inhibition of forskolin-mediated cAMP accumulation", "experimental": "A. Blockade of Agonist-Mediated Inhibition of cAMP Accumulation\nIn this assay, the functional potency of a test compound was determined by measuring the ability of the test compound to block oxotremorine-inhibition of forskolin-mediated cAMP accumulation in CHO-K^1 cells expressing the hM2 receptor.\ncAMP assays were performed in a radioimmunoassay format using the Flashplate Adenylyl Cyclase Activation Assay System with ^125I-cAMP (NEN SMP004B, PerkinElmer Life Sciences Inc., Boston, Mass.), according to the manufacturer's instructions.\nCells were rinsed once with dPBS and lifted with […] (0.05% trypsin/[…]) as described in the Cell Culture and Membrane Preparation section above. […] The cell pellet was then re-suspended in 10 mL dPBS, and the cells were counted with a Coulter Z1 Dual Particle Counter (Beckman Coulter, Fullerton, Calif.). […]\nReactions were incubated for 10 minutes at 37° C. and stopped by addition of 100 μL ice-cold detection buffer. Plates were sealed, incubated overnight at room temperature and counted the next morning on a PerkinElmer TopCount liquid scintillation counter (PerkinElmer Inc., Wellesley, Mass.). The amount of cAMP produced (pmol/well) was calculated based on the counts observed for the samples and cAMP standards, as described in the manufacturer's user manual. […]"}
{"compound": "CNCCCCCCCCN1CC[C@@H](C(C(N)=O)(c2ccccc2)c2ccccc2)C1", "note": "[Example 1, 2-[(S)-1-(8-Methylaminooctyl)pyrrolidin-3-yl]-2,2-diphenylacetamide]", "values": [{"measurement": "Ki", "result": "< 5", "unit": "nM"}]}
